Results: US20080132569A1, “Antifungal Compositions for Inhibiting Growth of Wood Decay Fungi and Use Thereof” (priority 2006, published 2008)
≈ marks a conversion by molar mass, not a printed value. Where “and” joins values, the source holds several entries; their conditions need not be identical. Identical values can stand only once. Like-named read-outs stand apart in the source and are kept apart here. Marks after values point to notes of the source that are not given here. Blank lines part the entries; values can stand above or below the molecule they belong to.

How the values were obtained:
[1] = Antifungal assay, mycelium growth on PDA containing the chemical; settings: for Antifungal index: 50 μg/ml
[2] = as above; settings: T. versicolor; for Antifungal index (%): Table 1
[3] = as above; settings: G. trabeum; for Antifungal index (%): Table 1
[4] = as above
[5] = MIC and MFC determination on PDA; settings: L. betulina
[6] = MIC and MFC determination on PDA; settings: L. sulphureus
[7] = Antifungal activity on paper (CNS 2690, TAPPI T487 cm-93); settings: A. niger, 14 days
[8] = as above; settings: A. terreus, 14 days
[9] = as above; settings: C. globosum, 14 days
[10] = L. betulina, 100 μg/ml, Table 1
[11] = L. sulphureus, 100 μg/ml, Table 1
[12] = L. betulina, 100 μg/ml, Table 4, mean ± SE (n = 5)
[13] = L. betulina, Table 5, mean ± SE (n = 5), combinations at 1:1 ratio in molarities
[14] = L. betulina, Table 5, mean ± SE (n = 5), combinations at 1:1 ratio in molarities, read-out: IC50
[15] = Example 1, FIG. 1(A), read-out: IC50 (concentration that inhibited 50% of the mycelium growth)
[16] = L. sulphureus, 100 μg/ml, Table 4, mean ± SE (n = 5)
[17] = L. sulphureus, Table 5, mean ± SE (n = 5), combinations at 1:1 ratio in molarities
[18] = L. sulphureus, Table 5, mean ± SE (n = 5), combinations at 1:1 ratio in molarities, read-out: IC50
[19] = L. sulphureus, single compound at 0.17 mM

Molecule: Cc1cc(C(C)(C)C)c(O)c(C(C)(C)C)c1 [BHT, Butylated hydroxyltoluene, reference compound]
Antifungal index (%) [1, 10]: 16 ± 3.4%
Antifungal index (%) ([2]; 100 μg/ml): 23 ± 2.6%
Antifungal index (%) ([3]; 100 μg/ml): 0 ± 0%
Antifungal index (%) [4, 11]: 21 ± 5.6%

Molecule: O=CC=Cc1ccccc1 [Cinnamaldehyde, cinnamaldehyde]
Antifungal index ([1]; L. betulina, Example 3, FIG. 2(A)): 6%
Antifungal index (%) [1, 10]: 100 ± 0%
Antifungal index (%) [1, 12]: 100% and 100 ± 0.0^a %
IC50 ([1]; L. betulina, Example 1, FIG. 1(A), read-out: IC50 (concentration that inhibited 50% of the mycelium growth)): 650 µM
IC90 [1, 13]: 720 ± 60 µM
IC50 [1, 14]: 650 µM
Antifungal index (%) ([2]; 100 μg/ml): 34 ± 2.2%
IC50 [2, 15]: 1110 µM
MFC [5]: 750 µM (≈ 99.1 µg/mL)
MIC [5]: 750 µM (≈ 99.1 µg/mL)
Antifungal index ([3]; 50 μg/ml, Example 3, FIG. 2(B)): 22%
Antifungal index (%) ([3]; 100 μg/ml): 31 ± 0.7%
IC50 [3, 15]: 1050 µM
MFC [6]: 700 µM (≈ 92.5 µg/mL)
MIC [6]: 700 µM (≈ 92.5 µg/mL)
Antifungal index (%) [4, 11]: 100 ± 0%
Antifungal index (%) [4, 16]: 100% and 100 ± 0.0^a %
IC50 ([4]; L. sulphureus, Example 1, FIG. 1(A), read-out: IC50 (concentration that inhibited 50% of the mycelium growth)): 170 µM
IC90 [4, 17]: 530 ± 20 µM
IC50 [4, 18]: 230 µM
Antifungal index [4, 19]: 41%

Molecule: O=C(O)CN(CCN(CC(=O)O)CC(=O)O)CC(=O)O [EDTA, diaminoethanetetraacetic acid]
Antifungal index ([1]; Lenzites betulina, Example 5): 90%
Antifungal index ([4]; Laetiporus sulphureus, 50 μg/ml, Example 5): 10%

MIC [5]: 700 µM (≈ 115 µg/mL)
MIC [6]: 650 µM (≈ 107 µg/mL)
Molecule: C=CCc1ccc(O)c(OC)c1 [Eugenol, eugenol]
Antifungal index (%) [1, 12]: 100 ± 0.0^a %
Antifungal index (%) ([1]; L. betulina, 100 μg/ml, Table 4, mean ± SE (n = 5), listed as eugenol): 100%
IC90 [1, 13]: 650 ± 50 µM
IC50 [1, 14]: 370 µM
MFC [5]: 700 µM (≈ 115 µg/mL)
MFC [6]: 650 µM (≈ 107 µg/mL)
Antifungal index (%) [4, 16]: 100 ± 0.0^a %
Antifungal index (%) ([4]; L. sulphureus, 100 μg/ml, Table 4, mean ± SE (n = 5), listed as eugenol): 100%
IC90 [4, 17]: 520 ± 10 µM
IC50 [4, 18]: 250 µM
Antifungal index [4, 19]: 24%

Molecule: CCCC1COC(Cn2cncn2)(c2ccc(Cl)cc2Cl)O1 (stereo not drawn) [Propiconazole, propiconazole]
Antifungal index (%) ([1]; L. betulina, 1 μg/ml (propiconazole), Table 1): 100 ± 0%
Antifungal index (%) ([1]; L. betulina, 1 μg/ml (propiconazole), Table 1, listed as propiconazole): 100%
Antifungal index (%) ([1]; L. betulina, 1 μg/ml (propiconazole), Table 4, mean ± SE (n = 5)): 100 ± 0.0^a %
Antifungal index (%) ([1]; L. betulina, 1 μg/ml (propiconazole), Table 4, mean ± SE (n = 5), listed as propiconazole): completely inhibited
Antifungal index (%) ([2]; 1 μg/ml (propiconazole)): 92 ± 0.6%
Antifungal index (%) ([3]; 1 μg/ml (propiconazole)): 52 ± 3.7%
Antifungal index (%) ([4]; L. sulphureus, 1 μg/ml (propiconazole), Table 1): 100 ± 0%
Antifungal index (%) ([4]; L. sulphureus, 1 μg/ml (propiconazole), Table 1, listed as propiconazole): 100%
Antifungal index (%) ([4]; L. sulphureus, 1 μg/ml (propiconazole), Table 4, mean ± SE (n = 5)): 100 ± 0.0^a %
Antifungal index (%) ([4]; L. sulphureus, 1 μg/ml (propiconazole), Table 4, mean ± SE (n = 5), listed as propiconazole): completely inhibited

Molecule: CCCOC(=O)c1cc(O)c(O)c(O)c1 [Propyl gallate, propyl gallate]
Percent inhibition ratio ([7]; 100 μg/cm^2 on filter paper): 0 ± 0%
Percent inhibition ratio ([7]; 400 μg/cm^2 on filter paper): 0 ± 0%
Antifungal index (%) [1, 10]: 1 ± 1.9%
Antifungal index (%) ([2]; 100 μg/ml): 0 ± 0%
Antifungal index (%) ([3]; 100 μg/ml): 2 ± 0.6%
Percent inhibition ratio ([8]; 100 μg/cm^2 on filter paper): 0 ± 0%
Percent inhibition ratio ([8]; 400 μg/cm^2 on filter paper): 0 ± 0%
Antifungal index (%) [4, 11]: 0 ± 0%
Percent inhibition ratio ([9]; 100 μg/cm^2 on filter paper): 0 ± 0%
Percent inhibition ratio ([9]; 100 μg/cm^2 on filter paper, listed as propyl gallate): did not show any antifungal activity
Percent inhibition ratio ([9]; 400 μg/cm^2 on filter paper): 100 ± 0%
Percent inhibition ratio ([9]; 400 μg/cm^2 on filter paper, listed as propyl gallate): 100%

Molecule: O=c1c(O)c(-c2ccc(O)c(O)c2)oc2cc(O)cc(O)c12 [Quercetin, quercetin]
Antifungal index (%) [1, 12]: 0 ± 0.0^b %
Antifungal index (%) ([1]; L. betulina, 100 μg/ml, Table 4, mean ± SE (n = 5), listed as quercetin): did not express antifungal activities
IC90 [1, 13]: > 100000 µM
IC50 [1, 14]: > 100000 µM
Antifungal index (%) [4, 16]: 0 ± 0.0^c %
Antifungal index (%) ([4]; L. sulphureus, 100 μg/ml, Table 4, mean ± SE (n = 5), listed as quercetin): did not express antifungal activities
IC90 [4, 17]: > 100000 µM
IC50 [4, 18]: 64000 ± 250 µM

Molecule: catechin
Antifungal index (%) [1, 12]: 3 ± 1.5^b %
Antifungal index (%) ([1]; L. betulina, 100 μg/ml, Table 4, mean ± SE (n = 5), listed as catechin): did not express antifungal activities
IC90 [1, 13]: > 100000 µM
IC50 [1, 14]: > 100000 µM
Antifungal index (%) [4, 16]: 5 ± 1.8^b %
Antifungal index (%) ([4]; L. sulphureus, 100 μg/ml, Table 4, mean ± SE (n = 5), listed as catechin): did not express antifungal activities
IC90 [4, 17]: 80000 ± 140 µM
IC50 [4, 18]: 40000 ± 120 µM
